# Source: ChEMBL document CHEMBL4725337, “Modification of imidazothiazole derivatives gives promising activity in B-Raf kinase enzyme inhibition; synthesis, in vitro studies and molecular docking” (Bioorg Med Chem Lett, 2020)
# Biological target: Serine/threonine-protein kinase B-raf (Homo sapiens, UniProt P15056, V600E)
# Experiment: Inhibition of BRAF V600E mutant (unknown origin)
# Serine/threonine-protein kinase B-raf, sequence (P15056 2-766 V600E limits assumed): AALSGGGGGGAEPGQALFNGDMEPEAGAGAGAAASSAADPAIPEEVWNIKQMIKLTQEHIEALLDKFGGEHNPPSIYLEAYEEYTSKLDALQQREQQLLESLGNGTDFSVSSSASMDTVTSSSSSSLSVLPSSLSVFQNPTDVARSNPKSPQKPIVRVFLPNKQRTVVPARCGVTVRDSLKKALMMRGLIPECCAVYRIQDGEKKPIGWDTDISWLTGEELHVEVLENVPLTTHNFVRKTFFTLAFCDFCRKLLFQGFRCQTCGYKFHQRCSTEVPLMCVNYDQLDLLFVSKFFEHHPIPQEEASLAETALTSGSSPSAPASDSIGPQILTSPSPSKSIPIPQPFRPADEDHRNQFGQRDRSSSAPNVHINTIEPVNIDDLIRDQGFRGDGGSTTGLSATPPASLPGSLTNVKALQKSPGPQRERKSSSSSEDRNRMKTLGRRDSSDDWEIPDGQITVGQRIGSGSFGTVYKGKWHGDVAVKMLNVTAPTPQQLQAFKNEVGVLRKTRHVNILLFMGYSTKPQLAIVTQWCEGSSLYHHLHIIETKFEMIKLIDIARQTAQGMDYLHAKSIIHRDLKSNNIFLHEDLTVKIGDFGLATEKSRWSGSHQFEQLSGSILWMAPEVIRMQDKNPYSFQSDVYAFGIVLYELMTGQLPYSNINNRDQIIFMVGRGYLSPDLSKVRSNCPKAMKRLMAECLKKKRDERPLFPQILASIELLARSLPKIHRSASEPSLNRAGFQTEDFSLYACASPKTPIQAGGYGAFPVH
row,Compound,IC50 [µM]
1,Cc1ccc(S(=O)(=O)NCCNc2nccc(-c3c(-c4cccc(N)c4)nc4sccn34)n2)cc1,0.0591
2,Nc1cccc(-c2nc3sccn3c2-c2ccnc(NCCNS(=O)(=O)c3ccc(Br)cc3)n2)c1,0.0737
3,Nc1cccc(-c2nc3sccn3c2-c2ccnc(NCCNS(=O)(=O)c3cccc4ccccc34)n2)c1,0.152
4,Nc1cccc(-c2nc3sccn3c2-c2ccnc(NCCNS(=O)(=O)c3ccc(C(F)(F)F)cc3)n2)c1,0.141
5,Nc1cccc(-c2nc3sccn3c2-c2ccnc(NCCNS(=O)(=O)c3cccc(F)c3)n2)c1,0.0283

# These reach a lower IC50. Values come first.
row,IC50 [µM],Compound
1,0.0127,Nc1cccc(-c2nc3sccn3c2-c2ccnc(NCCNS(=O)(=O)c3ccc(F)cc3)n2)c1
2,0.0167,Nc1cccc(-c2nc3sccn3c2-c2ccnc(NCCNS(=O)(=O)c3ccc(Cl)cc3)n2)c1
3,0.00431,Nc1cccc(-c2nc3sccn3c2-c2ccnc(NCCCCNS(=O)(=O)c3ccc(Br)cc3)n2)c1
4,0.0234,COc1ccc(S(=O)(=O)NCCNc2nccc(-c3c(-c4cccc(N)c4)nc4sccn34)n2)cc1

# Test system: UACC-62
# Experiment: Antiproliferative activity against human UACC-62 cells at 10 uM relative to control
# Type: functional
row,Compound,Activity [%]
1,Nc1cccc(-c2nc3sccn3c2-c2ccnc(NCCCCNS(=O)(=O)c3ccc(Br)cc3)n2)c1,3.91
